# Experimental data as given in publication PMC11768667 (2025).
# What was measured:
# [1] = tested on: FKB-3 (DNA, aptamer) CGAGCATAGGCAGAACTTACCACACAGCGTACCTCGTAGCCATGCGCCGTTGGGTCGTAAGAGCGAGTCATTC; test: gel elution assay; settings: 20 mM NaCl, 0.5 mM MgCl2; for binding: 10 mM Tris-HCl pH 7.4, displacement from cDNA-bio
# [2] = tested on: FKB-S-5'FAM (DNA, aptamer) CTTACCACCAAGTGAGGGTGTACGGTGGCTTACGCTTGGTCGTAAG; test: microscale thermophoresis; settings: 20 mM NaCl, 0.5 mM MgCl2; 10 mM Tris-HCl pH 7.4, 5% DMSO, 0.05% Tween-20
# [3] = tested on: FKB-1 (DNA, aptamer) CGAGCATAGGCAGAACTTACCACCAAGTGAGGGTGTACGGTGGCTTACGCTTGGTCGTAAGAGCGAGTCATTC; test: gel elution assay; settings: 20 mM NaCl, 0.5 mM MgCl2; for binding: 10 mM Tris-HCl pH 7.4, displacement from cDNA-bio, tested at 100 µM
# [4] = tested on: FKB-2 (DNA, aptamer) CGAGCATAGGCAGAACTTACCACGAGGACGGGTCAGTGCGTTAGGTGCCCACAGTCGTAAGAGCGAGTCATTC; test: gel elution assay; settings: 20 mM NaCl, 0.5 mM MgCl2; for binding: 10 mM Tris-HCl pH 7.4, displacement from cDNA-bio
# [5] = tested on: FKB-S (DNA, aptamer) CTTACCACCAAGTGAGGGTGTACGGTGGCTTACGCTTGGTCGTAAG; test: AuNP aggregation colorimetric assay; settings: NaCl (20 µL of 400 mM added after compound), room temperature, indirect readout
# [6] = tested on: FKB-1-5'FAM (DNA, aptamer) CGAGCATAGGCAGAACTTACCACCAAGTGAGGGTGTACGGTGGCTTACGCTTGGTCGTAAGAGCGAGTCATTC; test: microscale thermophoresis; settings: 20 mM NaCl, 0.5 mM MgCl2; 10 mM Tris-HCl pH 7.4, 5% DMSO, 0.05% Tween-20
# [7] = 10 mM Tris-HCl pH 7.4, room temperature, displaced from cDNA-bio, apparent
compound,measurement,setting,value
COc1cc(O)c(C(=O)/C=C/c2ccc(O)cc2)c(OC)c1,binding,[1],weak
same,binding,[2],weak
same,binding,[3],no
same,binding,[4],weak
COc1cc(O)c(C(=O)/C=C/c2ccccc2)c(OC)c1,KD,[1]; [7],40500 nM
same,binding,[5]; FKB 0-5 μM,yes
same,KD,[6],1450 nM
same,KD,[2],280 nM
same,KD,[3]; [7],2870 nM
same,KD,[4]; [7],9970 nM
COc1ccc(/C=C/C(=O)c2c(O)cc(OC)cc2OC)cc1,binding,[1],weak
same,binding,[2],weak
same,binding,[3],no
same,binding,[4],weak
O=C(/C=C/c1ccc(O)cc1)c1ccc(O)cc1O,binding,[3],no
O=C1c2cccc(O)c2C(=O)c2c(O)cc(CO)cc21,binding,[3],no
O=c1c(O)c(-c2cc(O)c(O)c(O)c2)oc2cc(O)cc(O)c12,binding,[5],no
same,binding,[3],no
O=c1c(O)c(-c2ccc(O)c(O)c2)oc2cc(O)cc(O)c12,binding,[5],no
same,binding,[3],no
